Experimental findings from US6060608A, “Analogs of CC-1065 and the duocarmycins” (The Scripps Research Institute, priority 1999, dated 2000) are described below.

In the test the test system is w794 duplex DNA. Put plainly: DNA alkylation selectivity and efficiency within w794 DNA, thermally-induced strand cleavage and PAGE. Format: biochemical, SV40. The method, boiled down: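 5′-32P end-labeled w794 duplex DNA in TE buffer (pH 7.2–7.5) incubated with agent in DMSO across concentrations, 4–37 °C for 24–76 h depending on agent. Unbound agent removed by EtOH precipitation; thermolysis 100 °C, 30 min cleaves alkylation sites, mapped by denaturing 8% PAGE beside Sanger standards and autoradiography.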

[1] abbreviates: natural enantiomers, 37° C., 72 h.

As for `CC(C)(C)OC(=O)N1CC2CC23C1=CC(=O)c1ccc(C#N)cc13` (centres unmarked) [compound 25, N-(tert-Butyloxycarbonyl)-7-cyano-1,2,9,9a-tetrahydrocyclopropa[c]benz[e]indol-4-one], the “DNA alkylation sequence selectivity” value is listed as 5'-AA>5'-TA. Where the note is “both enantiomers, 37° C., 24-72 h”, the “concentration providing detectable DNA alkylation” value is reported as 10^-2 to 10^-3 M. In addition, under setting [1], the “concentration at which DNA alkylation is detectable” value was 10^-3 M and the “concentration at which DNA alkylation is prominent” value is 10^-2 M. Besides, the “DNA alkylation less efficient than 34-39” value (two enantiomers of 25) is 10^4 ×.
